{"source": "patent US12576107B2", "about": "“Methods of treating chronic inflammatory diseases” (METIMEDI PHARMACEUTICALS CO., LTD., priority 2018, dated 2026)", "key": {"[1]": {"tested_on": "Indomethacin-induced Crohn's disease rats", "experiment": "Crohn's disease model, oral Indomethacin", "type": "in vivo, Sprague-Dawley (SD) rats", "conditions": "Four-week after treatment", "method": "(§1) Animals. […] Six-week old male Sprague-Dawley (SD) rats were obtained from Samtako Co. (Osan, Gyeonggi-do, Republic of Korea) and bred under specific-pathogen-free (SPF) conditions. All animals were maintained in a 12-hour light/dark cycle at 22-25° C. with free access to food and water.\n(§2) Agents and animal model. To induce Crohn's disease and colitis, Indomethacin was purchased from Sigma Chemical (St. Louis, Missouri, USA) and was dissolved in saline. […] Two models of inflammatory bowel disease were used. Crohn's disease was induced by oral administration of Indomethacin (7 mg/kg), and colitis was induced by subcutaneous injections of Indomethacin (7 mg/kg) daily at a 24 h intervals (FIGS. 40 and 42).\n(§3) Histological analysis. The fixed flat-mounts were dehydrated in a graded series of ethanol and embedded in paraffin."}, "[2]": {"tested_on": "nonalcoholic steatohepatitis (NASH) mice", "experiment": "Liver CID (NASH) in vivo experiment, methionine-choline deficient (MCD) diet", "conditions": "2 mg/kg subcutaneous B.I.D", "procedure": "Female 5-week-old C57BL/6 mice were purchased form KOATEC (Pyeongtaek, South Korea) and were fed Methionine-Choline diet (MCD) for 4 weeks. When the mice weighed 15 g each, the mice were autopsied randomly to identify nonalcoholic steatohepatitis (NASH).\nMouse liver tissues (n=5) were dissected and fixed in 4% paraformaldehyde PBS solution for 15 h at 4° C. Fixed liver tissues were embedded in paraffin and sectioned at 10 μm. Slides were incubated at 55° C. for 2 h, and subsequently deparaffinized in xylene and rehydrated in a graded ethanol series and used for hematoxylin (Merck, Darmstadt, Germany) and eosin (H&E) staining (35). Paraffin sections (10 μm thick) stained with H&E were imaged using a Leica DM 1000 LED microscope (Leica Microsystems, Wetzlar, Germany).\nMouse liver tissues (n=5) were dissected and fixed in 4% paraformaldehyde PBS solution for 15 h at 4° C. Fixed tissues were embedded in paraffin and sectioned at 5 mm. Slides were incubated at 55° C. for 2 h, and subsequently deparaffinized in xylene and rehydrated in a graded ethanol series and re-fix in Bouin's solution for 1 hr at 56° C., remove the yellow color to rinse running tap water for 5-10 min and stained Biebrich scarlet-acid fuchsin solution for 5 min then in phosphomolybdic-phosphotungstic acid solution (ratio 1:1) for 30 minutes, and aniline blue solution and stain for 15 minutes. Rinse briefly in distilled water and in 1% acetic acid solution for 2-5 min. […] Mount with mounting medium. Imaged using a Leica DM 1000 LED microscope (Leica Microsystems, Wetzlar, Germany).\nAnimal Model for liver diseases. […] Female 5-week-old C57BL/6 mice were purchased form KOATEC (Pyeongtaek, South Korea) and were fed Methionine-Choline (MCD) diet for 4 weeks. […] Histological analysis. Mouse Liver tissues (n=5) were dissected and fixed in 4% paraformaldehyde PBS solution for 15 h at 4° C. Fixed liver tissues were embedded in paraffin and sectioned at 10 μm. Slides were incubated at 55° C. for 2 h, and subsequently deparaffinized in xylene and rehydrated in a graded ethanol series and used for hematoxylin (Merck, Darmstadt, Germany) and eosin (H&E) staining. Paraffin sections (10 μm thick) stained with H&E were imaged using a Leica DM 1000 LED microscope (Leica Microsystems, Wetzlar, Germany\nMasson Trichrome Stain. Mouse Liver tissues (n=5) were dissected and fixed in 4% paraformaldehyde PBS solution for 15 h at 4° C. Fixed tissues were embedded in paraffin and sectioned at 5 mm. Slides were incubated at 55° C. for 2 h, and subsequently deparaffinized in xylene and rehydrated in a graded ethanol series and re-fix in Bouin's solution for 1 hr at 56° C., remove the yellow color to rinse running tap water at 5-10 min and stained Biebrich scarlet-acid fuchsin solution for 5 min than in phosphomolybdic-phosphotungstic acid solution (ratio 1:1) for minutes, and aniline blue solution and stain for 15 minutes. Rinse briefly in distilled water and in 1% acetic acid solution for 2-5 minutes. […] Mount with mounting medium. Imaged using a Leica DM 1000 LED microscope (Leica Microsystems, Wetzlar, Germany).\nTo induce NASH, mice were fed methionine-choline deficient (MCD) diet with polyunsaturated fat for 8 weeks. […] Results are MEAN±SD."}, "[3]": {"tested_on": "Apolipoprotein E", "experiment": "Immunocytochemistry of drusen marker Apolipoprotein E in ARPE-19 cells", "type": "cell-based, Human", "conditions": "2.5 mM, hypoxia", "method": "(§4) Human retinal pigment epithelium cell line, ARPE-19, was purchased from American Type Culture Collection (Manassas, VA, USA). The ARPE-19 cells were maintained in RPMI1640 containing 10% fetal bovine serum (Life Technologies, Gaithersburg, MD, USA), 100 IU/ml penicillin, and 100 μg/ml streptomycin (Welgene, Daegu, South Korea).\n(§5) ARPE-19 and SK-N-SH cells were fixed on bio-coated coverslips (BD bioscience, San Jose, CA, USA) by 4% PFA for 20 min and then incubated with the primary antibodies for 15 h. The primary antibodies were as follows: HIF-1a (1:300, BD Biosciences, San Jose, CA, USA); LDH-A (1:300, Santa Cruz Biotechnology, Santa Cruz, CA, USA); LDH-B (1:300, Santa Cruz Biotechnology, Santa Cruz, CA, USA); NF-κB (1:300, Santa Cruz Biotechnology, Santa Cruz, CA, USA); TLR-4 (1:300, Santa Cruz Biotechnology, Santa Cruz, CA, USA); apoE (1:200, Santa Cruz Biotechnology, Santa Cruz, CA, USA). After PBS wash, the cells were incubated with anti-mouse secondary biotinylated antibody (1:2000, Vector Laboratorie, Burlingame, CA, USA) and visualized with streptavidin conjugated to Fluorescein (Vector Laboratorie, Burlingame, CA, USA). […] Confocal fluorescence images were obtained with confocal laser scanning microscopy (LSCM, Nikon A1+, Tokyo, Japan) under a 60× oil immersion lens."}, "[4]": {"tested_on": "LPS-injected spinal cord of rats", "experiment": "Multiple sclerosis / spinal cord injury model, intraspinal injection of LPS", "type": "in vivo, Sprague-Dawley (SD) rats", "conditions": "2 mg/kg daily subcutaneous 21 days", "method": "Animals. […] Eight-week old male Sprague-Dawley (SD) rats were obtained from Samtako Co. (Osan, Gyeonggi-do, Republic of Korea) and bred under specific-pathogen-free (SPF) conditions. All animals were maintained in a 12-hour light/dark cycle at 22-25° C. with free access to food and water.\nDissolve 1 mg of LPS powder in 1 ml of saline. Keep the tubes on ice if LPS is going to be used fresh. For long storage, use screw cap vials are preferred. The aliquots were stored at deep freezer (−20° C.). Calcium lactate was purchased from Sigma Aldrich (St. Louis, USA).\nIntraspinal injection of LPS. The animals were placed in a small acrylic cage that was coupled with an anesthesia machine that allowed them to breathe freely under gaseous anesthesia (2% isoflurane, Spartanburg, SC, USA). After full anesthesia of an animal was achieved, it was positioned on an operating table (while maintaining the gaseous anesthesia). For intraspinal injection of LPS, the laminectomy site of rats was exposed. Two small holes, 1 mm apart, were made in the dura over the left dorsal column. A volume of 1 μl of LPS solution was carefully drawn up into a sterile Hamilton syringe, and the LPS solution was slowly injected into the spinal cord. The syringe maintained in place for an additional 2 min to prevent back-flux from the injection site. Then, the injection site was closed by surgical clips.\nImmunohistochemistry. […]"}, "[5]": {"tested_on": "Indomethacin-induced colitis rats", "experiment": "Colitis model, subcutaneous Indomethacin", "type": "in vivo, Sprague-Dawley (SD) rats", "conditions": "Four-week after treatment", "method": "as §1, §2, §3"}, "[6]": {"tested_on": "lactate dehydrogenase B", "experiment": "Immunocytochemistry of lactate dehydrogenase B in ARPE-19 cells", "type": "cell-based, Human", "conditions": "2.5 mM, hypoxia", "method": "as §4, §5"}, "[7]": {"tested_on": "High cholesterol diet supplied ApoE-deficient mice (Atherosclerosis)", "experiment": "Vascular disease (atherosclerosis) model, high fat diet ApoE-deficient mice", "type": "in vivo, BALB/c ApoE^shi mice", "method": "Animals. […] Fibe-week old male BALB/c ApoE^shi mice were obtained from Japan SLC Inc. (Shizuoka, Japan) and bred under specific-pathogen-free (SPF) conditions. All animals were maintained in a 12-hour light/dark cycle at 22-25° C. with free access to food and water.\nCalcium lactate was purchased from Sigma Aldrich (St. Louis, MO, USA).\nAnimal model for vascular disease. BALB/c ApoE^shi species is used for spontaneous induction of vascular disease. In this investigation, a high fat (40%) diet was provided for 4 weeks to induce strong atherosclerosis.\nHistological analysis. The thoracic aorta was transected, and a half of the aorta was fixed in 10% neutral buffer formalin fixative solution. Then, histological analysis was performed. Histological analysis was performed with H&E and Oil red O staining. Aortic wall thickness, atherosclerotic plaque areas, foam cell numbers, and lipidated regions were analyzed.\nStatistical analysis. Statistical analysis was performed using SPSS statistics, and the results were analyzed using Student t-test. Histologic analysis was performed using the Mann-Whitney method. P<0.05 was considered statistically significant."}, "[8]": {"conditions": "2 mg/kg daily subcutaneous, male ApoE-deficient mice, mean ± S.E.M."}, "[9]": {"conditions": "male ApoE-deficient mice, n = 8, mean ± S.E.M."}}, "note": "Entries after “also recorded” stand apart in the source; their conditions may differ."}
{"smiles": "CC(O)C(=O)[O-].CC(O)C(=O)[O-].[Ca+2]", "note": "(stereo not drawn) [calcium lactate]", "values": [{"measurement": "transmural inflammation and linear ulceration in the intestinal tissues", "setting": "[1]; 2 mg/kg daily subcutaneous", "result": "clearly decreased"}, {"measurement": "morphology of intestinal tissues vs. normal control", "setting": "[1]", "result": "morphologically recovered"}, {"measurement": "liver fibrosis (collagen accumulation)", "setting": "[2]; Masson trichrome", "result": "not present"}, {"measurement": "serum alanine aminotransferase (ALT)", "setting": "[2]; P<0.001 vs. MCD", "result": "significantly decreased"}, {"measurement": "serum aspartate aminotransferase (AST)", "setting": "[2]; P<0.001 vs. MCD", "result": "significantly decreased"}, {"measurement": "immune cell infiltration in the liver", "setting": "[2]; histology", "result": "decreased"}, {"measurement": "lipid droplets in the liver", "setting": "[2]; histology", "result": "not observed; also recorded: not present"}, {"measurement": "liver steatosis", "setting": "[2]; histology", "result": "prevented"}, {"measurement": "drusen marker (Apolipoprotein E), immunocytochemistry", "setting": "[3]", "result": "decreased"}, {"measurement": "demyelinated spinal cord", "setting": "[4]", "result": "Recovery"}, {"measurement": "microglia infiltration (Iba-1) in spinal cord", "setting": "[4]", "result": "reduction"}, {"measurement": "Superficial ulceration, polyp, and inflammation in the intestinal tissues", "setting": "[5]; 2 mg/kg daily subcutaneous", "result": "clearly decreased"}, {"measurement": "morphology of intestinal tissues vs. normal control", "setting": "[5]", "result": "morphologically recovered"}, {"measurement": "lactate dehydrogenase B, immunocytochemistry", "setting": "[6]", "result": "increased"}, {"measurement": "ATHEROSCLEROTIC PLAQUE AREAS", "setting": "[7]; [8]", "result": "0.10 ± 0.03^++ mm^2"}, {"measurement": "FOAM CELL NUMBERS", "setting": "[7]; [8]", "result": "39.00 ± 10.13^+ cells/mm^2"}, {"measurement": "LIPID DEPOSITED REGIONS", "setting": "[7]; [8]", "result": "0.09 ± 0.03^++ mm^2"}, {"measurement": "MEAN AORTA WALL THICKNESS", "setting": "[7]; [8]", "result": "85.83 ± 8.70^+ μm"}, {"measurement": "atherosclerotic lesions of aorta (H&E, oil red O)", "setting": "[7]; ApoE-deficient mice", "result": "decreased"}, {"measurement": "pathogenic factors cholesterol (TCHO), LDL cholesterol (LDL), triglycerides (TG), HDL-cholesterol (HDL)", "setting": "[7]; ApoE-deficient mice, blood", "result": "not controlled"}, {"measurement": "HDL (clinical blood biochemistry)", "setting": "[7]; [9]", "result": "197.2 ± 3.7", "unit": "mg/dL"}, {"measurement": "LDL (clinical blood biochemistry)", "setting": "[7]; [9]", "result": "1537.1 ± 14.2", "unit": "mg/dL"}, {"measurement": "TCHO (clinical blood biochemistry)", "setting": "[7]; [9]", "result": "2328.0 ± 56.7", "unit": "mg/dL"}, {"measurement": "TG (clinical blood biochemistry)", "setting": "[7]; [9]", "result": "54.8 ± 2.8", "unit": "mg/dL"}]}
